In patent US10206394B2, “Herbicidal compounds” (Syngenta Participations AG, priority 2014, dated 2019):
Like-named read-outs stand apart in the source and are kept apart here.

Experiments:
Format in all cases: in vivo
[1] = system: Alopecurus myosuroides (ALOMY); assay: Glasshouse assay for herbicidal activity (pre- and post-emergence), percentage phytotoxicity; settings: Alopecurus myosuroides, Rate 250 g/ha, 100%=total damage, 0%=no damage
Procedure, shortened: (§1)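 Pot-grown, standard soil. PRE: spray 1 d post-sowing; POST: ~12 d. Glasshouse 24/18 °C (warm spp.) / 20/16 °C (cool spp.), 16 h light, 65% RH, watered 2×/day. Visual % damage, 20 DAA PRE, 15 DAA POST.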

Avena fatua (AVEFA) = assay: as above; settings: Avena fatua, Rate 250 g/ha, 100%=total damage, 0%=no damage
Procedure, shortened: as §1

[2] = system: Echinochloa crus-galli (ECHCG); assay: as above; settings: Echinochloa crus-galli, Rate 250 g/ha, 100%=total damage, 0%=no damage
Procedure, shortened: as §1

Lolium perenne (LOLPE) = assay: as above; settings: Lolium perenne, Rate 250 g/ha, 100%=total damage, 0%=no damage
Procedure, shortened: as §1

[3] = system: Winter Wheat variety 'Hereward'; assay: Glasshouse assay for crop safety, post-emergence, +/- safener cloquintocet-mexyl (CQC), percentage phytotoxicity; settings: 250 g/ha, evaluated after 13 days, 100=total damage, 0=no damage; for Post-emergence Crop Selectivity, percentage phytotoxicity, Wheat +CQC: with safener cloquintocet-mexyl (CQC) seed treatment 0.5 g/kg seed; for Post-emergence Crop Selectivity, percentage phytotoxicity, Wheat − CQC: without safener cloquintocet-mexyl (CQC)
Text: Test—Glasshouse Assay for Crop Safety.
Seeds of the Winter Wheat variety ‘Hereward’ were seed treated with a wettable powder formulation of the cereal herbicide safener, cloquintocet mexyl, at a rate of 0.5 grams per kilogram of dry seed prior to the initiation of glasshouse testing. Three seeds were sown per 1.5 inch plastic pot into a sandy loam soil at a depth of 1 cm, 8 days prior to application of the test compounds and was watered and grown under controlled conditions in a glasshouse (at 24/16° C., day/night; 14 hours light; 65% humidity). The plants were sprayed Post-emergence with an aqueous spray solution derived from the formulation of the technical active ingredient in acetone/water (50:50) solution containing 0.5% Tween 20 (polyoxyethelyene sorbitan monolaurate, CAS RN 9005-64-5).
The test plants were then grown in a glasshouse under controlled conditions (at 24/16° C., day/night; 14 hours light; 65% humidity) and watered twice daily. After 13 days for pre and post-emergence, the test was evaluated (100=total damage to plant; 0=no damage to plant).

[4] = post-emergence, 360 h, post-emergence, assessed visually 15 DAA, read-out: Post-emergence herbicidal activity (percentage phytotoxicity) ALOMY POST
[5] = pre-emergence, 480 h, pre-emergence, assessed visually 20 DAA, read-out: Pre-emergence herbicidal activity (percentage phytotoxicity) ALOMY PRE
[6] = post-emergence, 360 h, post-emergence, assessed visually 15 DAA, read-out: Post-emergence herbicidal activity (percentage phytotoxicity) AVEFA POST
[7] = pre-emergence, 480 h, pre-emergence, assessed visually 20 DAA, read-out: Pre-emergence herbicidal activity (percentage phytotoxicity) AVEFA PRE
[8] = post-emergence, 360 h, post-emergence, assessed visually 15 DAA, read-out: Post-emergence herbicidal activity (percentage phytotoxicity) ECHCG POST
[9] = pre-emergence, 480 h, pre-emergence, assessed visually 20 DAA, read-out: Pre-emergence herbicidal activity (percentage phytotoxicity) ECHCG PRE
[10] = post-emergence, 360 h, post-emergence, assessed visually 15 DAA, read-out: Post-emergence herbicidal activity (percentage phytotoxicity) LOLPE POST
[11] = pre-emergence, 480 h, pre-emergence, assessed visually 20 DAA, read-out: Pre-emergence herbicidal activity (percentage phytotoxicity) LOLPE PRE

| SMILES | pest or weed control at 250 g/ha [1, 4] [%] | pest or weed control at 250 g/ha [1, 5] [%] | pest or weed control at 250 g/ha (Avena fatua (AVEFA); [6]) [%] | pest or weed control at 250 g/ha (Avena fatua (AVEFA); [7]) [%] | pest or weed control at 250 g/ha [2, 8] [%] | pest or weed control at 250 g/ha [2, 9] [%] | pest or weed control at 250 g/ha (Lolium perenne (LOLPE); [10]) [%] | pest or weed control at 250 g/ha (Lolium perenne (LOLPE); [11]) [%] | Post-emergence Crop Selectivity, percentage phytotoxicity, Wheat +CQC [3] [%] | Post-emergence Crop Selectivity, percentage phytotoxicity, Wheat − CQC [3] [%] |
| --- | --- | --- | --- | --- | --- | --- | --- | --- | --- | --- |
| Cc1cc(C)c(C2C(=O)CC(CC(=O)NC(C)(C)C)C2=O)c(C)c1 (stereo not drawn) [Compound A2, N-tert-butyl-2-[2,4-dioxo-3-(2,4,6-trimethylphenyl)cyclopentyl]-acetamide] | 80 | 80 | 70 | 10 | 50 | 70 | 80 | 80 | 10 | 10 |
| CCC(C)NC(=O)CC1CC(=O)C(c2c(C)cc(C)cc2C)C1=O (stereo not drawn) [Compound A3] | 90 | 100 | 90 | 90 | 90 | 100 | 90 | 100 | 10 | 60 |
| Cc1cc(C)c(C2C(=O)CC(CC(=O)NCc3ccccc3)C2=O)c(C)c1 (stereo not drawn) [Compound A4] | 50 | 50 | 80 | 30 | 80 | 70 | 90 | 80 | 10 | 60 |
| Cc1cc(C)c(C2C(=O)CC(CC(=O)NCC(C)C)C2=O)c(C)c1 (stereo not drawn) [Compound A5] | 90 | 100 | 80 | 70 | 80 | 100 | 80 | 100 | 10 | 80 |
| Cc1cc(C)c(C2C(=O)CC(CC(=O)NCc3cccs3)C2=O)c(C)c1 (stereo not drawn) [Compound A6] | 90 | 90 | 90 | 60 | 90 | 100 | 90 | 100 | 10 | 70 |
| Cc1cc(C)c(C2C(=O)CC(CC(=O)NC(C)C)C2=O)c(C)c1 (stereo not drawn) [Compound A7] | 90 | 80 | 90 | 60 | 100 | 90 | 100 | 100 | 20 | 30 |
| CCCCNC(=O)CC1CC(=O)C(c2c(C)cc(C)cc2C)C1=O (stereo not drawn) [Compound A12] | 100 | 90 | 80 | 70 | 80 | 100 | 90 | 100 | 0 | 70 |
| Cc1cc(C)c(C2C(=O)CC(CC(=O)NCC(C)(C)C)C2=O)c(C)c1 (stereo not drawn) [Compound A14] | 80 | 90 | 70 | 70 | 80 | 100 | 80 | 80 | 10 | 60 |
| Cc1cc(C)c(C2C(=O)CC(CC(=O)NC3CC3)C2=O)c(C)c1 (stereo not drawn) [Compound A15] | 80 | 80 | 80 | 50 | 100 | 100 | 100 | 100 | 20 | 20 |
| COCC(C)NC(=O)CC1CC(=O)C(c2c(C)cc(C)cc2C)C1=O (stereo not drawn) [Compound A16] | 90 | 90 | 90 | 90 | 100 | 100 | 80 | 80 | 30 | 80 |
| Cc1cc(C)c(C2C(=O)CC(CC(=O)NC3(c4ccccn4)CC3)C2=O)c(C)c1 (stereo not drawn) [Compound A18] | 70 | 60 | 50 | 20 | 70 | 60 | 80 | 60 | 20 | 70 |
| Cc1cc(C)c(C2C(=O)CC(CC(=O)NCC3CC3)C2=O)c(C)c1 (stereo not drawn) [Compound A19] | 90 | 90 | 80 | 70 | 80 | 90 | 90 | 90 | 40 | 80 |
| CCNC(=O)CC1CC(=O)C(c2c(C)cc(C)cc2C)C1=O (stereo not drawn) [Compound A20] | 80 | 70 | 80 | 70 | 100 | 100 | 100 | 100 | 20 | 40 |
| Cc1cc(C)c(C2C(=O)CC(CC(=O)NC3CCCC3)C2=O)c(C)c1 (stereo not drawn) [Compound A21] | 80 | 70 | 70 | 50 | 80 | 80 | 80 | 80 | 0 | 60 |
| Cc1cc(C)c(C2C(=O)CC(CC(=O)N3CCCCC3)C2=O)c(C)c1 (stereo not drawn) [Compound A22] | 80 | 60 | 60 | 30 | 90 | 100 | 80 | 70 | 50 | 60 |
